Measurements as given in PubChem BioAssay (NCI).
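All cell lines were grown in 96-well plates and treated with compound for 48 hours. The concentration for 50% growth inhibition is given as GI50. Definition used: TGI = concentration required for complete inhibition of growth.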

Key:
Assay in all cases: DTP human tumour cell line panel, 48 h
SK-MEL-28 melanoma = tested on: SK-MEL-28 melanoma
SNB-19 CNS = tested on: SNB-19 CNS
ACHN renal = tested on: ACHN renal
MDA-N = tested on: MDA-N
BT-549 breast = tested on: BT-549 breast
CCRF-CEM leukemia = tested on: CCRF-CEM leukemia
IGROV1 ovarian = tested on: IGROV1 ovarian
SN12C renal = tested on: SN12C renal
LOX IMVI melanoma = tested on: LOX IMVI melanoma
U251 CNS = tested on: U251 CNS
786-0 renal = tested on: 786-0 renal
HOP-92 NSCLC = tested on: HOP-92 NSCLC
SN12K1 renal = tested on: SN12K1 renal
M19-MEL melanoma = tested on: M19-MEL melanoma
SNB-78 CNS = tested on: SNB-78 CNS
XF 498 CNS = tested on: XF 498 CNS
HOP-18 NSCLC = tested on: HOP-18 NSCLC
DLD-1 colon = tested on: DLD-1 colon
KM20L2 colon = tested on: KM20L2 colon

Row | Structure (SMILES) | TGI (SK-MEL-28 melanoma) | TGI (SNB-19 CNS) | TGI (ACHN renal) | TGI (MDA-N) | TGI (BT-549 breast) | TGI (CCRF-CEM leukemia) | GI50 (IGROV1 ovarian) | TGI (IGROV1 ovarian) | TGI (SN12C renal) | TGI (LOX IMVI melanoma) | TGI (U251 CNS) | TGI (786-0 renal) | TGI (HOP-92 NSCLC) | TGI (SN12K1 renal) | TGI (M19-MEL melanoma) | TGI (SNB-78 CNS) | TGI (XF 498 CNS) | TGI (HOP-18 NSCLC) | TGI (DLD-1 colon) | TGI (KM20L2 colon)
1 | COc1c2occc2cc2ccc(=O)oc12 | > 100 µM | > 100 µM | > 100 µM | > 100 µM | > 100 µM | > 100 µM | > 100 µM | > 100 µM | > 100 µM | > 100 µM | > 100 µM | > 100 µM | > 100 µM |  |  |  |  |  |  | 
2 | N[C@@H](Cc1ccc2oc3cc(=O)c4ccccc4c-3nc2c1)C(=O)O | > 100 µM | 77.6 µM | > 100 µM | 38.2 µM |  | > 100 µM |  | > 100 µM | > 100 µM | > 100 µM | > 100 µM | > 100 µM | > 100 µM |  |  |  |  |  |  | 
3 | C=CCOC1OC(CS(=O)(=O)O)C(OC(C)=O)C(OC(C)=O)C1OC(C)=O (stereo not given) | > 100 µM | > 100 µM |  | > 100 µM | > 100 µM | > 100 µM |  | > 100 µM | > 100 µM | > 100 µM | > 100 µM |  | > 100 µM |  |  |  |  |  |  | 
4 | CCOC(=O)/C=C/c1c[nH]c(=O)[nH]c1=O | > 75 µM | > 75 µM |  |  |  | > 75 µM |  | > 75 µM | > 75 µM | > 75 µM | > 75 µM |  | > 75 µM | > 75 µM | > 75 µM | > 75 µM | > 75 µM | > 75 µM | > 75 µM | > 75 µM
5 | c1ccc(N2N=C3N(c4ccccc4)C2N3c2ccccc2)cc1 | 43.4 µM | > 100 µM | > 100 µM | 41.8 µM | > 100 µM | 71.8 µM |  | > 100 µM | > 100 µM | 62.4 µM | > 100 µM |  | 60.8 µM |  |  |  |  |  |  | 
